Laboratory results taken from ChEMBL document CHEMBL5257097, “An Isomer of Galidesivir That Potently Inhibits Influenza Viruses and Members of the Bunyavirales Order” (ACS Med Chem Lett, 2023).

Assays:
[1] = (§1) Selectivity index, ratio of CC50 for cytotoxicity against African green monkey Vero 76 cells infected with MERS-CoV assessed as reduction in cell viability by neutral red dye based analysis to EC50 for antiviral activity against MERS-CoV infected in African green monkey Vero 76 cells assessed as reduction in virus-induced cytopathic effect by neutral red dye based analysis; type: toxicity; settings: read-out: Ratio CC50/EC50
Influenza A virus [2] = assay: Antiviral activity against Influenza A virus H3N2 infected in dog MDCK cells assessed as inhibition of viral replication measured after 15 to 30 mins by visual analysis; type: functional, organism-based
Influenza A virus [3] = assay: Antiviral activity against Influenza A virus H3N2 infected in dog MDCK cells assessed as inhibition of viral replication measured after 15 to 30 mins by neutral red dye based analysis; type: functional, organism-based
Influenza A virus [4] = assay: Antiviral activity against Influenza A virus H7N9 infected in dog MDCK cells assessed as inhibition of viral replication measured after 15 to 30 mins by visual analysis; type: functional, organism-based
Influenza B virus [5] = assay: Antiviral activity against Influenza B virus infected in dog MDCK cells assessed as inhibition of viral replication measured after 15 to 30 mins by neutral red dye based analysis; type: functional, organism-based
[6] = Cytotoxicity against dog MDCK cells infected with Influenza A virus H3N2 assessed as reduction in cell viability by neutral red dye based analysis; type: toxicity, Canis lupus familiaris
[7] = Cytotoxicity against dog MDCK cells infected with Influenza A virus H7N9 assessed as reduction in cell viability by visual analysis; type: toxicity, cell-based, Canis lupus familiaris
[8] = (§2) Selectivity index, ratio of CC50 for cytotoxicity against dog MDCK cells infected with Influenza A virus H1N1 assessed as reduction in cell viability by visual analysis to EC50 for antiviral activity against Influenza A virus H1N1 infected in dog MDCK cells assessed as inhibition of viral replication by visual analysis; type: toxicity, cell-based; settings: read-out: Ratio CC50/EC50
[9] = as §2, with “H3N2” for “H1N1”; type: toxicity, cell-based; settings: read-out: Ratio CC50/EC50
[10] = as §2, with “B” for “A”, “virus” for “virus H1N1”; type: toxicity, cell-based; settings: read-out: Ratio CC50/EC50
[11] = Selectivity index, ratio of CC50 for cytotoxicity against dog MDCK cells infected with Influenza B virus assessed as reduction in cell viability by neutral dye based analysis to EC50 for antiviral activity against Influenza B virus infected in dog MDCK cells assessed as inhibition of viral replication by neutral red dye based analysis; type: toxicity; settings: read-out: Ratio CC50/EC50
Influenza B virus [12] = assay: Antiviral activity against Influenza B virus infected in dog MDCK cells assessed as reduction in virus yield measured after 3 days by visual analysis; type: functional; settings: 72 h, time 3 day
[13] = as §2, with “EC90” for “EC50”, “reduction in” for “inhibition of”, “yield” for “replication”; type: toxicity, cell-based
[14] = as §2, with “H3N2” for “H1N1”, “EC90” for “EC50”, “reduction in” for “inhibition of”, “yield” for “replication”; type: toxicity, cell-based
Junin virus [15] = assay: Antiviral activity against Junin virus infected in African green monkey Vero E6 cells assessed as inhibition of viral replication by visual analysis; type: functional, organism-based; settings: Mammarenavirus juninense, Vero C1008
Junin virus [16] = assay: Antiviral activity against Junin virus infected in African green monkey Vero E6 cells assessed as inhibition of viral replication by neutral red dye based analysis; type: functional, organism-based; settings: Mammarenavirus juninense, Vero C1008
La Crosse virus = assay: Antiviral activity against La Crosse virus infected in African green monkey Vero E6 cells assessed as inhibition of viral replication by neutral red dye based analysis; type: functional, organism-based; settings: Vero C1008
Oropouche virus [17] = assay: Antiviral activity against Oropouche virus infected in African green monkey Vero E6 cells assessed as inhibition of viral replication by visual analysis; type: functional, organism-based; settings: Vero C1008
Oropouche virus [18] = assay: Antiviral activity against Oro-pouche virus infected in African green monkey Vero E6 cells assessed as inhibition of viral replication by neutral red dye based analysis; type: functional, organism-based; settings: Vero C1008
Pichinde virus [19] = assay: Antiviral activity against Pichinde virus infected in African green monkey Vero cells assessed as inhibition of viral replication by visual analysis; type: functional, organism-based
Pichinde virus [20] = assay: Antiviral activity against Pichinde virus infected in African green monkey Vero cells assessed as inhibition of viral replication by neutral red dye based analysis; type: functional, organism-based
[21] = Cytotoxicity against African green monkey Vero E6 cells infected with Heartland virus assessed as reduction in cell viability; type: toxicity, cell-based, Vero C1008; settings: chlorocebus sabaeus
[22] = Cytotoxicity against African green monkey Vero E6 cells infected with JUNV assessed as reduction in cell viability by visual analysis; type: toxicity, cell-based, Vero C1008; settings: chlorocebus sabaeus
[23] = Cytotoxicity against African green monkey Vero 76 cells infected with La Crosse virus assessed as reduction in cell viability by visual analysis; type: toxicity, cell-based; settings: chlorocebus sabaeus
[24] = Cytotoxicity against African green monkey Vero E6 cells infected with Oropouche virus assessed as reduction in cell viability by visual analysis; type: toxicity, cell-based, Vero C1008; settings: chlorocebus sabaeus
[25] = Cytotoxicity against African green monkey Vero E6 cells infected with Oropouche virus assessed as reduction in cell viability by neutral red dye based analysis; type: toxicity, Vero C1008; settings: chlorocebus sabaeus
[26] = Cytotoxicity against African green monkey Vero E6 cells infected with Severe fever with thrombocytopenia syndrome virus assessed as reduction in cell viability; type: toxicity, cell-based, Vero C1008; settings: chlorocebus sabaeus
[27] = Cytotoxicity against African green monkey Vero cells infected with Tacaribe virus assessed as reduction in cell viability by visual analysis; type: toxicity, cell-based; settings: chlorocebus sabaeus
[28] = (§3) Selectivity index, ratio of CC50 for cytotoxicity against African green monkey Vero 76 cells infected with Rift Valley fever virus assessed as reduction in cell viability to EC90 for antiviral activity against Rift Valley fever virus infected in African green monkey Vero 76 cells assessed as reduction in viral yield; type: toxicity, cell-based
[29] = as §3, with “La Crosse” for “Rift Valley fever”, “viability by visual analysis” for “viability”, “EC50” for “EC90”, “replication by visual analysis” for “yield”; type: toxicity, cell-based; settings: read-out: Ratio CC50/EC50
[30] = as §3, with “E6” for “76”, “Lymphocytic choriomeningitis” for “Rift Valley fever”; type: toxicity, cell-based, Vero C1008
[31] = as §1, with “E6” for “76”, “Oropouche virus” for “MERS-CoV”, “viral replication” for “virus-induced cytopathic effect”; type: toxicity, Vero C1008; settings: read-out: Ratio CC50/EC50
[32] = as §3, with “Punta Toro” for “Rift Valley fever”, “viability by visual analysis” for “viability”, “EC50” for “EC90”, “replication by visual analysis” for “yield”; type: toxicity, cell-based; settings: read-out: Ratio CC50/EC50
[33] = as §1, with “Punta Toro virus” for “MERS-CoV”, “viral replication” for “virus-induced cytopathic effect”; type: toxicity; settings: read-out: Ratio CC50/EC50
[34] = as §1, with “Vero” for “Vero 76”, “Tacaribe virus” for “MERS-CoV”, “viral replication” for “virus-induced cytopathic effect”; type: toxicity; settings: read-out: Ratio CC50/EC50
Ebolavirus = assay: Antiviral activity against Ebola virus infected in human HeLa cells assessed as reduction in viral cytopathic effect; type: functional, organism-based; settings: Orthoebolavirus
[35] = Cytotoxicity against African green monkey Vero cells infected with DENV-2 assessed as reduction in cell viability by visual assay; type: toxicity, cell-based; settings: chlorocebus sabaeus
[36] = (§4) Selectivity index, ratio of CC50 for cytotoxicity against African green monkey Vero cells infected with DENV-2 assessed as reduction in cell viability by visual analysis to EC50 for antiviral activity against DENV-2 infected in human Huh-7 cells assessed as reduction in virus-induced cytopathic effect by visual analysis; type: toxicity, cell-based; settings: read-out: Ratio CC50/EC50
[37] = Cytotoxicity against vervet monkey MA-104 cells infected with MERS-CoV assessed as reduction in cell viability by visual assay; type: toxicity, cell-based; settings: cercopithecus pygerythrus
[38] = as §1, with “vervet” for “African green”, “MA-104” for “Vero 76”; type: toxicity; settings: read-out: Ratio CC50/EC50
[39] = as §4, with “vervet” for “African green”, “MA-104” for “Vero”, “MERS-CoV” for “DENV-2”, “vervet monkey MA-104” for “human Huh-7”; type: toxicity, cell-based; settings: read-out: Ratio CC50/EC50

**Q.** Which results are given for `Nc1ncnn2c([C@@H]3N[C@H](CO)[C@@H](O)[C@H]3O)ccc12`?
**A.** selectivity ratio [1]: 15; EC50 (Influenza A virus [2]): 0.32 µM; EC50 (Influenza A virus [3]): 0.31 µM; EC50 (Influenza A virus [4]): 0.42 µM; EC50 (Influenza B virus [5]): 0.26 µM; CC50 [6]: 10 µM; CC50 [7]: 32 µM; selectivity ratio [8]: 41; selectivity ratio [9]: 38; selectivity ratio [10]: 38; selectivity ratio [11]: 38; EC90 (Influenza B virus [12]): 0.3 µM; selectivity ratio [13]: 240; selectivity ratio [14]: 64; EC50 (Junin virus [15]): 0.54 µM; EC50 (Junin virus [16]): 0.28 µM; EC50 (La Crosse virus): < 0.1 µM; EC50 (Oropouche virus [17]): 0.39 µM; EC50 (Oropouche virus [18]): 0.2 µM; EC50 (Pichinde virus [19]): 0.38 µM; EC50 (Pichinde virus [20]): 0.3 µM; CC50 [21]: 13 µM; CC50 [22]: 12 µM; CC50 [23]: 24 µM; CC50 [24]: 24 µM; CC50 [25]: 15 µM; CC50 [26]: 11 µM; CC50 [27]: 12 µM; selectivity ratio [28]: 78; selectivity ratio [29]: > 240; selectivity ratio [30]: 80; selectivity ratio [31]: 75; selectivity ratio [32]: 41; selectivity ratio [33]: 37; selectivity ratio [34]: 20

**Q.** What does the source list for `Nc1ncnc2c([C@@H]3N[C@H](CO)[C@@H](O)[C@H]3O)c[nH]c12` [GALIDESIVIR]?
**A.** EC50 (Ebolavirus): 3 µM; CC50 [35]: > 100 µM; selectivity ratio [36]: > 24; CC50 [37]: > 100 µM; selectivity ratio [38]: > 3.1; selectivity ratio [39]: > 2.8
